Results on 2 molecules are retold here after US20050208549A1, “Testing endosymbiont cellular organelles and compounds identifiable therewith” (priority 2000, published 2005).

The conditions of data set [1]: cited from earlier work.
The next data set has as its system PBMC of patients. The data set is described as follows: Mitochondrial DNA content per PBMC of HIV-1 infected patients on antiviral therapy (duplex NASBA). Type of data set: in vivo, human (HIV-1 infected patients). The following applies: for Mitochondrial DNA content in PBMC (per cell), Median / % decrease in mitochondrial DNA content of PBMC: patients. The protocol:
Different ratios of mitochondrial and chromosomal DNA targets in plasmids were analyzed in this example: 2×10^3 U1a DNA/8×10^3 Mt DNA, 2×10^3 U1a DNA/2×10^4 MtDNA, 2×10^3 U1a DNA/4×10^4 Mt DNA, 2×10^3 U1a DNA/10^5 Mt DNA, 2×10^3 U1a DNA/2×10^5 Mt DNA, 2×10^3 U1a DNA/4×10^5 Mt DNA, and 2×10^3 U1a DNA/8×10^5 Mt DNA molecules were included. A reaction mix was prepared similar to that of Example 12, except that primers and beacons differed in order to amplify chromosomal and mitochondrial DNA in one tube. The reaction mix (duplex-mix) contained two sets of primers and beacons: SnrpD P1 and SnrpD2 P2 (first primer set, each 0.2 μM), and MtD P1—2 and MtD P2—2 (second primer set, each 0.3 μM) with beacons SnrpD mb—2 (FAM-labeled) and MtD mb—3 (ROX-labeled) (each 0.04 μM). See Table 1 for primer and, probe sequences. Restriction enzyme digestion, amplification, and detection were performed as in Example 12. Filter sets of the fluorimeter (CytoFluor 2000 or EasyQ analyzer) were adapted to simultaneously measure the FAM and the ROX-label (485/20 and 530/25 for FAM; 590/20 and 645/40 for ROX). In a duplex reaction with two competing amplifications, the ratio of the slope of the curves of fluorescence in time is proportional to the ratio of the amount of molecules of each amplified species. The relation between the ratio of the slopes of FAM and ROX signal is linear to the ratio of mitochondrial DNA and chromosomal DNA in the input.
Forty-eight HIV-1 infected patients were randomized for antiviral therapy with either AZT, AZT+ddI, or AZT+ddC. Blood was drawn at week 0, 4, 24, and 48 after the start of therapy. The blood was used to prepare peripheral blood mononuclear cells (PBMC) by Ficoll-Isopaque purification. PBMC were viably frozen in medium plus 5% DMSO and stored in liquid nitrogen until use.
Nucleic acids were extracted from 10^5 PBMC using the Boom method. Nucleic acids equivalent of 1,000 PBMC were used as input for the one-tube real-time duplex-NASBA that measures both mitochondrial and chromosomal DNA as described in Example 17. The result of this assay is expressed as the mitochondrial DNA content per cell (i.e., PBMC) of the patient sample.
The mtDNA content of the PBMC of the patients at start of therapy was compared to the mtDNA content at week 4, 24, and 48 and analyzed for statistically significant changes (see Table 3 and FIGS. 20 and 21).

The test system of another data set is Fibroblast cells. Briefly: NASBA ratio of mitochondrial RNA to mitochondrial DNA in cultured fibroblast cells. Type of data set: cell-based. The following applies: culture period of four weeks, antiviral drugs at 3 μM and 30 μM. As for the experimental part: In Table 1, the primers and probes used in the examples are summarized. Standard NASBA nucleic acid amplification reactions were performed in a 20 μl reaction volume and contained: 40 mM Tris-pH 8.5, 70 mM KCl, 12 mM MgCl2, 5 mM dithiothreitol, 1 mM dNTPs (each), 2 mM rNTPs (each), 0.2 μM primer (each), 0.05 μM molecular beacon, 375 mM sorbitol, 0.105 μg/μl bovine serum albumin, 6.4 units AMV RT, 32 units T7 RNA polymerase, 0.08 units RNAse H and input nucleic acid. The complete mixture, except the enzymes, sorbitol and/or bovine serum albumin was, prior to adding the enzyme mixture, heated to 65° C. for two minutes in order to denature any secondary structure in the RNA and to allow the primers to anneal. After cooling the mixture to 41° C., the enzymes were added. The amplification took place at 41° C. for 90 minutes in a fluorimeter (CytoFluor 2000) and the fluorescent signal was measured every minute (using the filter set 530/25 nm and 485/30 nm). […]
To achieve quantification, a dilution series of target sequences for a particular primer set was amplified and the time points at which the reactions became positive (the time to positivity, TTP) were plotted against the input amounts of nucleic acid. This way a calibration curve was created that could be used to read TTP values of reactions with unknown amounts of input and deduce the input amount. […]

Data set [2] concerns peripheral blood mononuclear cells (PBMCs). The data set is described as follows: NASBA ratio of mitochondrial RNA to chromosome-encoded RNA in cultured PBMCs. Type of data set: cell-based, human (healthy blood donor). The protocol:
In Table 1, the primers and probes used in the examples are summarized. Standard NASBA nucleic acid amplification reactions were performed in a 20 μl reaction volume and contained: 40 mM Tris-pH 8.5, 70 mM KCl, 12 mM MgCl2, 5 mM dithiothreitol, 1 mM dNTPs (each), 2 mM rNTPs (each), 0.2 μM primer (each), 0.05 μM molecular beacon, 375 mM sorbitol, 0.105 μg/μl bovine serum albumin, 6.4 units AMV RT, 32 units T7 RNA polymerase, 0.08 units RNAse H and input nucleic acid. The complete mixture, except the enzymes, sorbitol and/or bovine serum albumin was, prior to adding the enzyme mixture, heated to 65° C. for two minutes in order to denature any secondary structure in the RNA and to allow the primers to anneal. After cooling the mixture to 41° C., the enzymes were added. The amplification took place at 41° C. for 90 minutes in a fluorimeter (CytoFluor 2000) and the fluorescent signal was measured every minute (using the filter set 530/25 nm and 485/30 nm). For amplification of DNA target sequences, the 65° C. denaturation step was replaced with a 95° C. denaturation step for two to five minutes.
To achieve quantification, a dilution series of target sequences for a particular primer set was amplified and the time points at which the reactions became positive (the time to positivity, TTP) were plotted against the input amounts of nucleic acid. This way a calibration curve was created that could be used to read TTP values of reactions with unknown amounts of input and deduce the input amount.
Cells (fibroblasts and PBMCs) were cultured under standard conditions in standard media known to persons skilled in the art with the addition of drugs or putative toxic or stimulating compounds as defined in the examples. […] A small aliquot of the isolated nucleic acid was analyzed on an agarose gel and the remainder stored at −80° C. until further analysis. […]

Take `Cc1cn([C@H]2C[C@H](N=[N+]=[N-])[C@@H](CO)O2)c(=O)[nH]c1=O` [AZT]: the “Rate (%) of mitochondrial toxicity, affected organ Heart” value in data set [1] (Dilated cardio-myopathy) is “Rare”. In addition, the “Rate (%) of mitochondrial toxicity, affected organ Muscle” value in data set [1] (Fatigue, myalgia, proximal weakness, wasting, Creatine kinase ↑) is reported as 17%. For the same molecule, the “Mitochondrial DNA content in PBMC (per cell), Median” value amounted to 196 in the data set on PBMC of patients (week 0 (start of therapy)), 157 in the data set on PBMC of patients (week 4 of therapy), 182 in the data set with PBMC of patients (week 24 of therapy) and 155 in the data set with PBMC of patients (week 48 of therapy). Besides, the “% decrease in mitochondrial DNA content of PBMC” value in the data set with PBMC of patients (week 4 compared to start of therapy) turned out to be 11%; with PBMC of patients (week 24 compared to start of therapy), 1%; with PBMC of patients (week 48 compared to start of therapy), 5%. For the same molecule, in the data set with Fibroblast cells, the “change in mitochondrial RNA to mitochondrial DNA ratio” value is “no measurable change”. Besides, the “change in ratio of mitochondrial RNA to chromosome-encoded RNA” value in data set [2] (culture period of five days, 6 μM and 60 μM) is “no measurable change”.

With `Nc1ccn([C@H]2CC[C@@H](CO)O2)c(=O)n1` [ddC], the “change in the mitochondrial DNA content of patients' PBMC under therapy” value with PBMC of patients (human, in vivo) is reported as “significant decline”. In addition, the “decline in PBMCs of mitochondrial RNA per cell” value in data set [2] (five-day culture period, highest concentration of ddC used, FIG. 10) is on record as “do not clearly show a decline”.
